Structures are written as SMILES.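 Grown in 96-well plates, cells were treated for 48 hours with each compound at five concentrations. Insufficient inhibition: endpoint recorded as highest concentration tested. Abbreviation: GI50, concentration required for 50% inhibition of growth.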 Active and inactive are the calls of the source. Rule as the data show it: active = GI50 up to about 1.1 µM and inactive = higher. Where only a bound is given, the exact number is not on record here.

Common to all, as to assay: inhibition of tumour cell growth, NCI panel, 48 h
The subject of test [1] is HCC 2998.
Test [2] deals with CAKI-1.
Test [3] relates to K562.
Test [4] concerns SW-620.
Test [5] concerns Hs-578T.
Test [6] concerns NCI/ADR-RES.
Test [7] has as its system DU-145.
The subject of test [8] is SF-539.
The test system of test [9] is PC-3.
Test [10] deals with SK-MEL-5.
In test [11] the test system is SNB-19.
For test [12], the system named is T47D.
Test [13] has as its system U-251.
Test [14] has as its system MDA-N.
In test [15] the test system is HT-29.
Test [16] relates to CCRF-CEM.
Test [17] deals with NCI-H522.
Test [18] relates to MOLT-4.
In test [19] the test system is MCF7.

`COc1ccc2oc(C(=O)N3CC(CCl)c4ccc([N+](=O)[O-])cc43)cc2c1` (stereo not given): the GI50 was > 100 µM (inactive) in [1]; 15.4 µM (inactive) in [2]; > 100 µM (inactive) in test [3]; > 100 µM (inactive) in test [4]; 9.12 µM (inactive) in [5]; 17.9 µM (inactive) in test [6]. In addition, the GI50 was 25.4 µM (inactive) in test [7]; 14 µM (inactive) in test [8]; 20.7 µM (inactive) in [9]; > 100 µM (inactive) in test [10]; 25.2 µM (inactive) in test [11]; 53.8 µM (inactive) in [12]. In addition, the GI50 in test [13] is 26 µM (inactive).
As for `Cc1ccc(-c2cc(-c3ccccc3)nc(N)n2)c(O)c1`, the GI50 in [1] was > 100 µM (inactive); in test [2] it was > 74.6 µM (inactive); in [14] it was 4.78 µM (inactive); in test [3], 2.09 µM (inactive); in test [4], > 22.7 µM (inactive); in test [15], > 100 µM (inactive). The GI50 is > 100 µM (inactive) in [6]; 3.4 µM (inactive) in test [16]; 5.4 µM (inactive) in test [17]; > 79.4 µM (inactive) in [7]; > 60.7 µM (inactive) in test [8]; > 32.9 µM (inactive) in test [9]. In addition, the GI50 is 3.52 µM (inactive) in [18]; 6.46 µM (inactive) in test [10]; 32.4 µM (inactive) in test [11]; 58.1 µM (inactive) in test [19]; > 100 µM (inactive) in test [12]; 42.1 µM (inactive) in test [13].
For the compound `COc1cc2c(cc1C)NC(=O)/C2=C\c1cccnc1`, the GI50 was 10 µM (inactive) in test [1]; 15.4 µM (inactive) in [2]; 9.4 µM (inactive) in [3]; 26.8 µM (inactive) in test [4]; 24.7 µM (inactive) in [5]; 15.5 µM (inactive) in test [15]. Besides, the GI50 is 14.1 µM (inactive) in test [6]; 20.8 µM (inactive) in test [16]; 20.4 µM (inactive) in [17]; 17.1 µM (inactive) in test [7]; 20.4 µM (inactive) in test [8]; 30.1 µM (inactive) in test [9]. Also, the GI50 in test [18] was 7.98 µM (inactive); in [10] it was 15.1 µM (inactive); in test [11] it was 12.6 µM (inactive); in test [19], 11.7 µM (inactive); in [12] it was 3.91 µM (inactive); in [13] it was 12.9 µM (inactive).
`C=C(C)C1CC/C(C)=C/CC[C@]2(C)O[C@H]2CC/C(COC(C)=O)=C\[C@@H]1O` (stereo not given in full): the GI50 is > 50 µM (inactive) in [1]; > 50 µM (inactive) in test [2]; 11.1 µM (inactive) in test [3]; > 50 µM (inactive) in test [4]; > 50 µM (inactive) in [15]; 20.7 µM (inactive) in test [6]. Further, the GI50 in test [16] was 16.3 µM (inactive); in [17], 19.2 µM (inactive); in test [7], > 50 µM (inactive); in test [8], > 50 µM (inactive); in [9], 22.4 µM (inactive); in test [18], 16 µM (inactive). The GI50 in [10], in [11], in test [19], in test [12] and in test [13] was > 50 µM (inactive) each time.
Take `CN(Cc1cnc2c(n1)C(N)=NN(N)N2)c1ccc(C(=O)NC(CCP(=O)(O)O)C(=O)O)cc1` (stereo not given): the GI50 was 15.3 µM (inactive) in test [1]; > 52.8 µM (inactive) in test [2]; > 100 µM (inactive) in test [3]; 1.53 µM (inactive) in test [4]; > 100 µM (inactive) in test [5]; 9.51 µM (inactive) in [15]. In addition, the GI50 in [6] was 8.02 µM (inactive); in test [16] it was 0.267 µM (active); in [17], 26.4 µM (inactive); in [8] it was 3.47 µM (inactive); in test [18], 5.42 µM (inactive); in [10] it was 5.35 µM (inactive). For the same compound, the GI50 is > 30.7 µM (inactive) in [11], 2.18 µM (inactive) in [19], > 100 µM (inactive) in [12] and > 91 µM (inactive) in test [13].
With `COc1ccc(C2C(Cl)C(=O)N2NC(=O)c2ccc(N)cc2)cc1OC` (stereo not given), the GI50 in [1] was 8.11 µM (inactive); in test [2], 2.92 µM (inactive); in test [14], 9.46 µM (inactive); in [3], 3.12 µM (inactive); in test [4], 3.27 µM (inactive); in [15], 2.53 µM (inactive). In addition, the GI50 in [6] was 1.97 µM (inactive); in test [16], 1.71 µM (inactive); in test [17] it was 1.98 µM (inactive); in test [7] it was 16.4 µM (inactive); in test [8], 7.8 µM (inactive); in test [9], 12.9 µM (inactive). The GI50 in test [18] was 1.96 µM (inactive); in test [10] it was 12.2 µM (inactive); in [11], 13.9 µM (inactive); in [19] it was 9.84 µM (inactive); in [12] it was 11.1 µM (inactive); in test [13] it was 2.72 µM (inactive).
`CCOP(=O)(OCC)/C(C#N)=C/c1cnc(-c2ccccc2)[nH]1`: the GI50 in [1], in test [2], in [14], in test [3], in test [4] and in test [5] was > 100 µM (inactive) in each case. In addition, the GI50 in test [15] is > 100 µM (inactive); in test [6], > 100 µM (inactive); in [16], > 100 µM (inactive); in test [17], > 100 µM (inactive); in test [7], > 100 µM (inactive); in test [8], 0.0887 µM (active). Also, the GI50 was > 100 µM (inactive) in [9]; > 100 µM (inactive) in test [18]; 82.8 µM (inactive) in [10]; > 100 µM (inactive) in test [11]; > 100 µM (inactive) in test [19]; > 100 µM (inactive) in [13].
On to `CC1(C)COC(c2ccccc2-c2ccccc2)=N1`, for which the GI50 in test [1] is > 100 µM (inactive); in test [2] it was 81.3 µM (inactive); in test [14], > 100 µM (inactive); in test [3], 90.2 µM (inactive); in test [4] it was > 100 µM (inactive); in test [15] it was 83 µM (inactive). Moreover, the GI50 was > 100 µM (inactive) in test [6]; > 100 µM (inactive) in test [16]; 38.7 µM (inactive) in test [17]; > 100 µM (inactive) in test [7]; > 100 µM (inactive) in test [8]; > 100 µM (inactive) in [9]. For the same compound, the GI50 in [18] is > 100 µM (inactive); in test [11] it was 71.6 µM (inactive); in test [19] it was > 100 µM (inactive); in test [12], 83.2 µM (inactive); in [13], 89.5 µM (inactive).
Consider `O=C1NC(O)c2ccccc2O1` (stereo not given), for which the GI50 in [1], in test [2], in [14], in [3], in [4] and in test [5] was > 100 µM (inactive) in each case. For the same compound, the GI50 in test [15], in test [6], in test [16], in test [17], in test [7] and in [8] was > 100 µM (inactive) each time. The GI50 in test [9], in test [18], in test [10], in test [11], in test [19] and in test [13] was > 100 µM (inactive) in each case.
On to `CCN(CC)c1ccc2cc(C(=O)Nc3ccccn3)c(=N)oc2c1`, for which the GI50 is > 100 µM (inactive) in test [1]; > 100 µM (inactive) in test [2]; > 100 µM (inactive) in test [14]; > 100 µM (inactive) in test [3]; > 100 µM (inactive) in test [4]; 32.1 µM (inactive) in test [5]. In addition, the GI50 was 32.2 µM (inactive) in test [15]; 85.3 µM (inactive) in test [6]; > 100 µM (inactive) in [16]; > 100 µM (inactive) in test [7]; 43.5 µM (inactive) in [8]; > 100 µM (inactive) in test [18]. For the same compound, the GI50 in [10] is > 100 µM (inactive); in [11], 19.1 µM (inactive); in test [12], 99.8 µM (inactive); in [13] it was 37.9 µM (inactive).
Turning to `Cc1ccc(O)cc1.Cc1cccc(O)c1.Cc1ccccc1O` [CRESOL], the GI50 in test [1] was > 100 µM (inactive); in test [2] it was > 100 µM (inactive); in [3], > 100 µM (inactive); in [4], > 100 µM (inactive); in test [5], 4.75 µM (inactive); in test [15], > 100 µM (inactive). For the same compound, the GI50 was > 100 µM (inactive) in [6]; 18.7 µM (inactive) in test [16]; 8.34 µM (inactive) in [17]; > 100 µM (inactive) in test [7]; > 100 µM (inactive) in test [8]; 73.3 µM (inactive) in test [9]. Besides, the GI50 in test [18] is 88.7 µM (inactive); in test [10] it was > 100 µM (inactive); in test [11] it was > 100 µM (inactive); in [19], > 100 µM (inactive); in [12], > 100 µM (inactive); in [13], > 100 µM (inactive).
Take `CCOC(CN(C)C(=O)OCC(Cl)(Cl)Cl)OCC`: the GI50 in test [1] was > 100 µM (inactive); in [2] it was 34.1 µM (inactive); in test [14], 81.3 µM (inactive); in [3], 39.9 µM (inactive); in test [4] it was > 100 µM (inactive); in [5], 29.7 µM (inactive). Besides, the GI50 in [15] was 79.1 µM (inactive); in [6], 39.4 µM (inactive); in test [16] it was 56.6 µM (inactive); in [17], 47.8 µM (inactive); in test [7], > 100 µM (inactive); in [8], > 100 µM (inactive). Also, the GI50 in test [9] is 23.3 µM (inactive); in test [18] it was 29.3 µM (inactive); in [10] it was 33.7 µM (inactive); in [11], > 100 µM (inactive); in test [19] it was 67.9 µM (inactive); in test [13], 74.8 µM (inactive).

The values above are taken from ChEMBL document CHEMBL1201862, “PubChem BioAssay data set” (2004).
